According to the NIST ThermoML archive (doi:10.1021/je1009976):

Assay: xn = mol fraction of the nth substance listed
Conditions: 101 kPa, Liquid; for viscosity: Capillary tube (Ostwald / Ubbelohde) method; for mass density: Pycnometric method

OCCOCCO [diethylene glycol] + O
Conditions	mass density, 303.15 K [kg/m3]	mass density, 308.15 K [kg/m3]	mass density, 313.15 K [kg/m3]	mass density, 318.15 K [kg/m3]	mass density, 323.15 K [kg/m3]	viscosity, 303.15 K [mPa·s]	viscosity, 308.15 K [mPa·s]	viscosity, 313.15 K [mPa·s]	viscosity, 318.15 K [mPa·s]	viscosity, 323.15 K [mPa·s]
x1 = 0.05006	1028.38	1026.09	1023.67	1021.08	1018.36	1.556	1.37	1.222	1.091	0.985
x1 = 0.1016	1051.83	1048.94	1046.02	1043.03	1039.94	2.582	2.242	1.962	1.729	1.535
x1 = 0.1512	1067.99	1065.34	1062.04	1058.72	1055.2	3.83	3.286	2.833	2.459	2.161
x1 = 0.2012	1078.71	1075.25	1071.77	1068.24	1064.5	5.261	4.448	3.806	3.286	2.846
x1 = 0.2477	1086.55	1082.95	1079.42	1075.76	1072.18	6.653	5.591	4.739	4.052	3.506
x1 = 0.298	1092.27	1088.52	1084.97	1081.58	1077.47	8.301	6.91	5.82	4.962	4.252
x1 = 0.3505	1096.22	1092.42	1088.68	1084.97	1081.16	9.851	8.154	6.821	5.768	4.929
x1 = 0.4483	1101.17	1097.58	1093.68	1089.91	1086.1	12.54	10.29	8.514	7.148	6.071
x1 = 0.5421	1103.74	1100.11	1096.37	1092.91	1088.98	15.06	12.28	10.14	8.478	7.143
x1 = 0.6518	1106.25	1102.58	1098.97	1095.29	1091.34	17.46	14.11	11.63	9.672	8.114
x1 = 0.7525	1107.78	1103.95	1100.25	1096.58	1093.18	19.3	15.64	12.82	10.65	8.937
x1 = 0.7864	1107.94	1104.26	1100.56	1096.89	1093.37	19.9	16.12	13.23	10.96	9.19
x1 = 0.8499	1108.55	1104.93	1101.32	1097.62	1093.91	20.61	16.74	13.73	11.42	9.461
x1 = 0.9005	1108.84	1105.16	1101.55	1097.87	1094.19	21.31	17.23	14.08	11.69	9.799
x1 = 0.9503	1109.66	1105.58	1101.98	1098.33	1094.55	21.74	17.53	14.41	11.92	9.999
x1 = 1	1109.48	1105.72	1102.11	1098.35	1094.94	22.16	17.93	14.71	12.19	10.19
